This is an account of results in ChEMBL document CHEMBL3826874, “Exploring new scaffolds for angiotensin II receptor antagonism” (Bioorg Med Chem, 2016).

In assay [1] the target is T1, Type-1 angiotensin II receptor (Homo sapiens, UniProt P30556).
T1 sequence (P30556 whole entry): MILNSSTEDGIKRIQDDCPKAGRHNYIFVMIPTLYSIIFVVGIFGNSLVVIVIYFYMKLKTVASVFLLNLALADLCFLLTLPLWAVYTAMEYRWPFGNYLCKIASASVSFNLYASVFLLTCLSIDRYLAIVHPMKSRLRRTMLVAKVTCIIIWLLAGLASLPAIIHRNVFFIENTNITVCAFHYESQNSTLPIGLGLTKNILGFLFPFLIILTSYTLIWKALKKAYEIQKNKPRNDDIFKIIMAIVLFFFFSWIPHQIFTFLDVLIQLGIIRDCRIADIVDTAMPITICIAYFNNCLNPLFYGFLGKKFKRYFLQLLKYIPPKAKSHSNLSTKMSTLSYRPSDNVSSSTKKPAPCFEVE
Put plainly: (§1) Displacement of [125I-Sar1-Ile8]Ang2 from human AT1 receptor expressed in HEK293 cell membrane incubated for 1 hr by gamma counting method. Type of assay: cell membranes. A general note: Loss of bound radioactivity is the signal in a displacement assay; it reports binding, not function.

For assay [2], the target named is T2, Type-1 angiotensin II receptor (Homo sapiens) (UniProt P30556).
T2 sequence (whole entry): T1 sequence (P30556 whole entry)
Described as §1. Type of assay: cell membranes.

With `Cc1ccc(C)c(NC(=O)CN(C)C(=O)c2ccc(S(=O)(=O)N3CCCCCC3)cc2)c1`, the IC50 in assay [1] (read-out: pIC50 (converted)) is 2.19 µM. Moreover, the inhibition entry in assay [2] was “Dose-dependent effect”.
In the same order, the values of `Cc1ccc(CN(c2ccc(C(=O)NCc3ccccn3)cc2)S(C)(=O)=O)cc1` are 2.09 µM and “Dose-dependent effect”.
As to `CN(Cc1cn(-c2ccccc2)nc1-c1ccc(F)cc1)C(=O)CCC(=O)O`, the IC50 in assay [1] (read-out: pIC50 (converted)) was 2.57 µM. In assay [2], the inhibition entry was “Dose-dependent effect”.
For the compound `CN(Cc1cn(-c2ccccc2)nc1-c1ccc(Cl)cc1)C(=O)CCC(=O)O`, the IC50 in assay [1] (read-out: IC50) was determined as 0.199 µM. Moreover, the inhibition entry in assay [2] is “Dose-dependent effect”.
